Reference: ChEMBL document CHEMBL1201862, “PubChem BioAssay data set” (2004)
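A five-concentration, 48-hour dose response in 96-well plates underlies each endpoint, interpolated linearly between surrounding concentrations. GI50 is the concentration that inhibits growth by half.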 Calls of active or inactive are those of the source. Rule as the data show it: active = GI50 up to about 1.1 µM and inactive = higher.

Tests used:
Assay in all cases: NCI tumour cell line growth inhibition, 48 h
MOLT-4 = system: MOLT-4
HCC 2998 = system: HCC 2998
XF498 = system: XF498
HL-60 = system: HL-60
IGROV-1 = system: IGROV-1
Malme-3M = system: Malme-3M
NCI-H522 = system: NCI-H522
CAKI-1 = system: CAKI-1
SK-MEL-5 = system: SK-MEL-5
UO-31 = system: UO-31
HT-29 = system: HT-29
A549 = system: A549
SK-MEL-2 = system: SK-MEL-2
OVCAR-4 = system: OVCAR-4
NCI-H460 = system: NCI-H460
KM12 = system: KM12
HCT-116 = system: HCT-116
OVCAR-3 = system: OVCAR-3
Hs-578T = system: Hs-578T
BT-549 = system: BT-549

SMILES | GI50 (MOLT-4) | GI50 (HCC 2998) | GI50 (XF498) | GI50 (HL-60) | GI50 (IGROV-1) | GI50 (Malme-3M) | GI50 (NCI-H522) | GI50 (CAKI-1) | GI50 (SK-MEL-5) | GI50 (UO-31) | GI50 (HT-29) | GI50 (A549) | GI50 (SK-MEL-2) | GI50 (OVCAR-4) | GI50 (NCI-H460) | GI50 (KM12) | GI50 (HCT-116) | GI50 (OVCAR-3) | GI50 (Hs-578T) | GI50 (BT-549)
CCc1cccc(C(C)C)c1NC(=O)C(=O)C(C(=O)C(=O)OC)c1nc2ccccc2nc1O (centres undefined) | > 100 µM (inactive) | > 100 µM (inactive) | > 100 µM (inactive) | > 100 µM (inactive) | > 100 µM (inactive) | > 100 µM (inactive) | > 100 µM (inactive) | > 100 µM (inactive) | > 100 µM (inactive) | > 100 µM (inactive) | > 100 µM (inactive) | > 100 µM (inactive) | > 100 µM (inactive) | > 100 µM (inactive) | > 100 µM (inactive) | > 100 µM (inactive) | > 100 µM (inactive) |  |  | 
CCCc1cc(OC(=O)c2c(O)cc(OC)cc2CCC)cc(O)c1C(=O)O | 29.5 µM (inactive) | 25.2 µM (inactive) | 25.9 µM (inactive) | 23 µM (inactive) | 47.9 µM (inactive) | 17.5 µM (inactive) | 16 µM (inactive) |  |  | 13 µM (inactive) | 33 µM (inactive) | 30.2 µM (inactive) | 20.5 µM (inactive) |  | 23.9 µM (inactive) | 28.2 µM (inactive) | 17.4 µM (inactive) | 20.6 µM (inactive) |  | 
COc1cc2c(c3oc4c(O)cccc4c(=O)c13)CC(C(C)(O)CCl)O2 (centres undefined) | < 0.01 µM (active) | 1.32 µM (inactive) |  | 0.115 µM (active) | 2.03 µM (inactive) | 2.06 µM (inactive) | 1.73 µM (inactive) | 1.16 µM (inactive) | 0.279 µM (active) | 0.807 µM (active) | 0.0476 µM (active) | 2.54 µM (inactive) | 1.36 µM (inactive) | 1.45 µM (inactive) | 2.64 µM (inactive) | 1.29 µM (inactive) | 0.157 µM (active) | 1.21 µM (inactive) | 2.03 µM (inactive) | 3.85 µM (inactive)
CSC1=NN=C(SC)NN1 | 0.027 µM (active) | 0.378 µM (active) |  | 0.0369 µM (active) | 0.166 µM (active) | 0.151 µM (active) | 0.214 µM (active) | 0.173 µM (active) | 0.182 µM (active) | 0.188 µM (active) | 0.173 µM (active) | 0.204 µM (active) | 0.145 µM (active) | 0.172 µM (active) | 0.196 µM (active) | 0.192 µM (active) | 0.167 µM (active) | 0.185 µM (active) | 0.161 µM (active) | 0.151 µM (active)
Cc1nc2c3c(ccc2nc1O)C(=O)c1ccccc1C3=O |  | > 100 µM (inactive) | > 100 µM (inactive) | > 100 µM (inactive) | 42.9 µM (inactive) | > 100 µM (inactive) | 7.18 µM (inactive) | 25.3 µM (inactive) | > 100 µM (inactive) | 6.15 µM (inactive) | > 100 µM (inactive) | 52 µM (inactive) |  | > 100 µM (inactive) | 37.2 µM (inactive) | 32.2 µM (inactive) | 40 µM (inactive) | > 100 µM (inactive) |  | 
NNC(=S)N/N=C(/C(=O)Nc1ccc(Cl)c(Cl)c1)C(C1OC(=O)c2ccccc21)[N+](=O)[O-] (centres undefined) | > 100 µM (inactive) | > 100 µM (inactive) |  | 19.9 µM (inactive) | 54.5 µM (inactive) | > 100 µM (inactive) | > 100 µM (inactive) | > 100 µM (inactive) | > 100 µM (inactive) | > 100 µM (inactive) | > 100 µM (inactive) | > 100 µM (inactive) | > 100 µM (inactive) | > 100 µM (inactive) | > 100 µM (inactive) | > 100 µM (inactive) | > 100 µM (inactive) | > 100 µM (inactive) | > 100 µM (inactive) | > 100 µM (inactive)
C/N=C(\N=c1/ss/c(=N\C)n1C)N(C)C.[O-][Cl+3]([O-])([O-])O | 59.7 µM (inactive) | > 100 µM (inactive) | > 100 µM (inactive) | 43.5 µM (inactive) | > 100 µM (inactive) |  | 76 µM (inactive) | 78.2 µM (inactive) | > 100 µM (inactive) | > 100 µM (inactive) | > 100 µM (inactive) | > 100 µM (inactive) |  | > 100 µM (inactive) | > 100 µM (inactive) | > 100 µM (inactive) |  | 53.1 µM (inactive) |  | 
O=[PH](O)c1cc2c3ccccc3ccc2c2ccccc12 | > 100 µM (inactive) | > 100 µM (inactive) | 67.3 µM (inactive) | > 100 µM (inactive) | > 100 µM (inactive) |  | > 100 µM (inactive) |  | > 100 µM (inactive) |  | > 100 µM (inactive) | > 100 µM (inactive) |  | > 100 µM (inactive) | > 100 µM (inactive) | > 100 µM (inactive) | > 100 µM (inactive) | > 100 µM (inactive) |  | 
